In brackets after ≈: the same amount, converted by molar mass.
SMILES | solubility (25 °C) | solubility (20 °C)
Fc1cccc(F)c1 | 9990 µM (≈ 1140 µg/mL) | 
CCCCCC(C)O (stereo not given) | 28100 µM (≈ 3270 µg/mL) | 
Clc1cccc(-c2ccccc2)c1Cl | 4.47 µM (≈ 0.997 µg/mL) | 
CCCCCCCCOC(=O)c1ccc(N)cc1 | 3.98 µM (≈ 0.993 µg/mL) | 
CCCCOCCOCCOCCCC |  | 13700 µM (≈ 3000 µg/mL)
CCCCCCN | 119000 µM (≈ 12000 µg/mL) | 
Clc1cc(Cl)c(Cl)c(-c2c(Cl)ccc(Cl)c2Cl)c1 | 0.0151 µM (≈ 0.00544 µg/mL) | 
Clc1cccc(-c2c(Cl)ccc(Cl)c2Cl)c1Cl | 0.166 µM (≈ 0.0542 µg/mL) | 
Clc1ccccc1-c1c(Cl)cccc1Cl | 1.26 µM (≈ 0.324 µg/mL) | 
Clc1ccc(Cl)c(-c2ccccc2)c1Cl | 0.323 µM (≈ 0.0833 µg/mL) | 
CCCCOCCOCCCC |  | 11500 µM (≈ 2000 µg/mL)
CCOCCOCC | 708000 µM (≈ 83700 µg/mL) | 
O=Cc1ccc([N+](=O)[O-])cc1 | 15500 µM (≈ 2340 µg/mL) | 
CCCCCCOCCO |  | 67700 µM (≈ 9900 µg/mL)
CC(=O)Nc1ccccc1[N+](=O)[O-] | 12300 µM (≈ 2220 µg/mL) | 
Cc1ccco1 |  | 36500 µM (≈ 3000 µg/mL)
Clc1ccccc1-c1ccc(Cl)c(Cl)c1Cl | 0.148 µM (≈ 0.0432 µg/mL) | 
CCc1ccc(C)cc1 | 790 µM (≈ 94.9 µg/mL) | 
CCCCCCCOC(=O)c1ccc(N)cc1 | 25.1 µM (≈ 5.91 µg/mL) | 
CCCOC(N)=O | 741000 µM (≈ 76400 µg/mL) | 
Clc1ccc(-c2c(Cl)ccc(Cl)c2Cl)cc1Cl | 0.0224 µM (≈ 0.00731 µg/mL) | 
CCCC[N+](=O)[O-] | 44600 µM (≈ 4600 µg/mL) | 
Clc1cc(Cl)c(-c2c(Cl)ccc(Cl)c2Cl)cc1Cl | 0.0117 µM (≈ 0.00424 µg/mL) | 
Clc1ccc(-c2ccc(Cl)c(Cl)c2Cl)c(Cl)c1 | 0.024 µM (≈ 0.00783 µg/mL) | 
Clc1ccc(-c2c(Cl)cccc2Cl)cc1 | 0.617 µM (≈ 0.159 µg/mL) | 

Source: the OPERA property sets (Mansouri et al. 2018)
